# Results published in patent US9023616B2, “Oil producing microbes and method of modification thereof” (DSM Nutritional Products AG, priority 2006, dated 2015).
# Entries after “also recorded” stand apart in the source; their conditions may differ.
# Tested on: ONC-T18
# Assay: Fatty acid production antagonist supplementation of ONC-T18 culture, fatty acid profile by FAME GC-FID
# Type: cell-based, Thraustochytrium sp. ONC-T18
# Experimental: Media containing 25 g/l sea salt and 1 g/l yeast extract was autoclaved at 120° C. for 20 minutes. Sterilized glucose was added to the media at a concentration of 9 g/l. Sethoxydim (Supleco) was dissolved in dimethyl sulfoxide at a concentration of 5 mg/ml was then added to the media at to represent a final concentration of 100 µM. 1 ml of a 24 hour pre-culture of ONC-T 18 that had been cultured in the same media was added. Culturing was carried out in a shaker (130 rpm) for four days at room temperature. After the incubation period, cells were harvested by centrifugation at 4300 rpm for 10 minutes. The cell pellets were then freeze-dried, weighed and the oil was extracted from the cells.
# (§1) The lipids were extracted and derivatized to fatty acid methyl esters (FAME) for gas chromatography analysis (GC). Transesterification and extraction was done using 200 mg freeze dried cells, with C19:0 as internal standard, added transesterification reaction mix (methanol:hydrochloric acid:chloroform, 10:1:1) mixed and heated at 90° C. for 2 hours, then allowed to cool at room temperature. FAMEs were extracted by adding 1 ml water, and 2 ml hexane:chloroform (4:1), and allow organic and aqueous phases to separate. The organic layer was extracted and treated with 0.5 g of anhydrous sodium sulfate to remove particulates and residual water. The organic solvents were evaporated under a stream of argon. The FAMEs were re-suspended in 5 ml of iso-octane and analyzed by GC-FID. The percent conversion was calculated by dividing the product produced by the sum of (the product produced plus the substrate added) and then multiplying by 100.
# Media containing 6 g/l sea salt, 2 g/l yeast extract, and 8 g/l L-glutamic acid monosodium salt hydrate was autoclaved at 120° C. for 20 minutes. Sterilized D+-glucose was then added to this media at a concentration of 40 g/l. Cerulenin dissolved in ethanol at a concentration of 5 mg/ml was added to 250 ml flask and the solvent was evaporated for 1 hour prior to adding the media to the flask. The amount of cerulenin in the flask represented a final concentration of 20 mg/l. ONC-T18 was then added to the medium from a plate culture and culturing occurred in a shaker (130 rpm) at room temperature for four days. After the incubation period, cells were harvested by centrifugation at 4300 rpm for 10 minutes, washed once with distilled water, and then centrifuged again at 4300 rpm for 10 minutes. The cell pellets were then freeze-dried, weighed and the oil was extracted from the cells.
# as §1, with “produced+the” for “produced plus the”
# Media containing 6 g/l sea salt, 2 g/l yeast extract, and 8 g/l L-glutamic acid monosodium salt hydrate was autoclaved at 120° C. for 20 minutes. Sterilized D+-glucose wad then added at a concentration of 5 g/l or was not added to the media. Oleic acid was added to the media to represent a final concentration of 2 ml/l. […]
# [1] = oleic acid in combination with glucoase
# [2] = presence of the antagonist, oleic acid without glucose
smiles,measurement,setting,value
CCCCCCCC/C=C\CCCCCCCC(=O)O [oleic acid],"DHA accumulated in ONC-T18, change versus control (in words)",antagonist added to medium,most of the oleic acid was converted into DHA; also recorded: more DHA content was observed; also recorded: increase in the content and proportion of DHA
same,"EPA in ONC-T18 fatty acid profile, change versus control (in words)",antagonist added to medium,elevation of the EPA content; also recorded: elevated level of EPA
same,"adrenic acid, lipid as percentage of total fatty acid",[1],0.28%
same,"arachidic acid, lipid as percentage of total fatty acid",[1],0.34%
same,"arachidonic acid, lipid as percentage of total fatty acid",[1],0.46%
same,"behenic acid, lipid as percentage of total fatty acid",[1],0.00%
same,"docosadienoic acid, lipid as percentage of total fatty acid",[1],0.43%
same,"docosahexaenoic acid, lipid as percentage of total fatty acid",[1],24.65%
same,"docosapentaenoic acid n-3, lipid as percentage of total fatty acid",[1],0.39%
same,"docosapentaenoic acid n-6, lipid as percentage of total fatty acid",[1],6.46%
same,"eicosadienoic acid, lipid as percentage of total fatty acid",[1],0.36%
same,"eicosapentaenoic acid, lipid as percentage of total fatty acid",[1],2.60%
same,"eicosatetraenoic acid, lipid as percentage of total fatty acid",[1],0.24%
same,"eicosatrienoic acid, lipid as percentage of total fatty acid",[1],0.00%
same,"eicosenoic acid, lipid as percentage of total fatty acid",[1],0.30%
same,"heneicosapentaenoic acid, lipid as percentage of total fatty acid",[1],0.79%
same,"hexacosanoic acid, lipid as percentage of total fatty acid",[1],0.00%
same,"homo-gamma-linolenic acid, lipid as percentage of total fatty acid",[1],0.30%
same,"lignoceric acid, lipid as percentage of total fatty acid",[1],0.00%
same,"margaric acid, lipid as percentage of total fatty acid",[1],0.17%
same,"myristic acid, lipid as percentage of total fatty acid",[1],8.04%
same,"myristoleic acid, lipid as percentage of total fatty acid",[1],0.00%
same,"nervonic acid, lipid as percentage of total fatty acid",[1],0.00%
same,"oleic acid, lipid as percentage of total fatty acid",[1],9.49%
same,"palmitic acid, lipid as percentage of total fatty acid",[1],33.18%
same,"palmitoleic acid, lipid as percentage of total fatty acid",[1],4.22%
same,"pentadecanoic acid, lipid as percentage of total fatty acid",[1],0.73%
same,"pentadecenoic acid, lipid as percentage of total fatty acid",[1],0.00%
same,"stearic acid, lipid as percentage of total fatty acid",[1],1.60%
same,"vaccenic acid, lipid as percentage of total fatty acid",[1],4.45%
same,"adrenic acid, lipid as percentage of total fatty acid",[2],0.60%
same,"arachidic acid, lipid as percentage of total fatty acid",[2],0.00%
same,"arachidonic acid, lipid as percentage of total fatty acid",[2],0.72%
same,"behenic acid, lipid as percentage of total fatty acid",[2],0.00%
same,"docosadienoic acid, lipid as percentage of total fatty acid",[2],0.68%
same,"docosahexaenoic acid, lipid as percentage of total fatty acid",[2],33.16%
same,"docosapentaenoic acid n-3, lipid as percentage of total fatty acid",[2],0.39%
same,"docosapentaenoic acid n-6, lipid as percentage of total fatty acid",[2],7.58%
same,"eicosadienoic acid, lipid as percentage of total fatty acid",[2],0.51%
same,"eicosapentaenoic acid, lipid as percentage of total fatty acid",[2],5.47%
same,"eicosatetraenoic acid, lipid as percentage of total fatty acid",[2],0.00%
same,"eicosatrienoic acid, lipid as percentage of total fatty acid",[2],0.00%
same,"eicosenoic acid, lipid as percentage of total fatty acid",[2],0.00%
same,"heneicosapentaenoic acid, lipid as percentage of total fatty acid",[2],0.20%
same,"hexacosanoic acid, lipid as percentage of total fatty acid",[2],0.00%
same,"homo-gamma-linolenic acid, lipid as percentage of total fatty acid",[2],0.61%
same,"lignoceric acid, lipid as percentage of total fatty acid",[2],0.00%
same,"margaric acid, lipid as percentage of total fatty acid",[2],0.28%
same,"myristic acid, lipid as percentage of total fatty acid",[2],1.38%
same,"myristoleic acid, lipid as percentage of total fatty acid",[2],0.00%
same,"nervonic acid, lipid as percentage of total fatty acid",[2],0.00%
same,"oleic acid, lipid as percentage of total fatty acid",[2],25.36%
same,"palmitic acid, lipid as percentage of total fatty acid",[2],16.67%
same,"palmitoleic acid, lipid as percentage of total fatty acid",[2],1.06%
same,"pentadecanoic acid, lipid as percentage of total fatty acid",[2],0.49%
same,"pentadecenoic acid, lipid as percentage of total fatty acid",[2],0.00%
same,"stearic acid, lipid as percentage of total fatty acid",[2],1.56%
same,"vaccenic acid, lipid as percentage of total fatty acid",[2],2.68%
CCC/C(=N\OCC)C1=C(O)CC(CC(C)SCC)CC1=O (stereo not shown) [sethoxydim],"DHA accumulated in ONC-T18, change versus control (in words)",antagonist added to medium,increase in the content and proportion of DHA
same,"adrenic acid, lipid as percentage of total fatty acid",[2],0.00%
same,"arachidic acid, lipid as percentage of total fatty acid",[2],0.2%
same,"arachidonic acid, lipid as percentage of total fatty acid",[2],0.20%
same,"behenic acid, lipid as percentage of total fatty acid",[2],0.00%
same,"docosadienoic acid, lipid as percentage of total fatty acid",[2],0.00%
same,"docosahexaenoic acid, lipid as percentage of total fatty acid",[2],19.31%
same,"docosapentaenoic acid n-3, lipid as percentage of total fatty acid",[2],0.24%
same,"docosapentaenoic acid n-6, lipid as percentage of total fatty acid",[2],5.26%
same,"eicosadienoic acid, lipid as percentage of total fatty acid",[2],0.14%
same,"eicosapentaenoic acid, lipid as percentage of total fatty acid",[2],0.78%
same,"eicosatetraenoic acid, lipid as percentage of total fatty acid",[2],0.37%
same,"eicosatrienoic acid, lipid as percentage of total fatty acid",[2],0.00%
same,"eicosenoic acid, lipid as percentage of total fatty acid",[2],0.00%
same,"heneicosapentaenoic acid, lipid as percentage of total fatty acid",[2],1.09%
same,"hexacosanoic acid, lipid as percentage of total fatty acid",[2],0.20%
same,"homo-gamma-linolenic acid, lipid as percentage of total fatty acid",[2],0.10%
same,"lignoceric acid, lipid as percentage of total fatty acid",[2],0.00%
same,"margaric acid, lipid as percentage of total fatty acid",[2],1.49%
same,"myristic acid, lipid as percentage of total fatty acid",[2],10.97%
same,"myristoleic acid, lipid as percentage of total fatty acid",[2],0.03%
same,"nervonic acid, lipid as percentage of total fatty acid",[2],0.00%
same,"oleic acid, lipid as percentage of total fatty acid",[2],0.18%
same,"palmitic acid, lipid as percentage of total fatty acid",[2],40.52%
same,"palmitoleic acid, lipid as percentage of total fatty acid",[2],9.18%
same,"pentadecanoic acid, lipid as percentage of total fatty acid",[2],5.5%
same,"pentadecenoic acid, lipid as percentage of total fatty acid",[2],0.53%
same,"stearic acid, lipid as percentage of total fatty acid",[2],1.45%
same,"vaccenic acid, lipid as percentage of total fatty acid",[2],2.48%
Cc1ccccc1C(=O)O [toluic acid],"adrenic acid, lipid as percentage of total fatty acid",[2],0.46%
same,"arachidic acid, lipid as percentage of total fatty acid",[2],0.23%
same,"arachidonic acid, lipid as percentage of total fatty acid",[2],0.90%
same,"behenic acid, lipid as percentage of total fatty acid",[2],0.00%
same,"docosadienoic acid, lipid as percentage of total fatty acid",[2],0.06%
same,"docosahexaenoic acid, lipid as percentage of total fatty acid",[2],23.03%
same,"docosapentaenoic acid n-3, lipid as percentage of total fatty acid",[2],0.54%
same,"docosapentaenoic acid n-6, lipid as percentage of total fatty acid",[2],5.95%
same,"eicosadienoic acid, lipid as percentage of total fatty acid",[2],0.79%
same,"eicosapentaenoic acid, lipid as percentage of total fatty acid",[2],2.95%
same,"eicosatetraenoic acid, lipid as percentage of total fatty acid",[2],0.36%
same,"eicosatrienoic acid, lipid as percentage of total fatty acid",[2],0.03%
same,"eicosenoic acid, lipid as percentage of total fatty acid",[2],0.14%
same,"heneicosapentaenoic acid, lipid as percentage of total fatty acid",[2],0.39%
same,"hexacosanoic acid, lipid as percentage of total fatty acid",[2],0.00%
same,"homo-gamma-linolenic acid, lipid as percentage of total fatty acid",[2],0.17%
same,"lignoceric acid, lipid as percentage of total fatty acid",[2],0.03%
same,"margaric acid, lipid as percentage of total fatty acid",[2],2.69%
same,"myristic acid, lipid as percentage of total fatty acid",[2],11.19%
same,"myristoleic acid, lipid as percentage of total fatty acid",[2],0.00%
same,"nervonic acid, lipid as percentage of total fatty acid",[2],0.18%
same,"oleic acid, lipid as percentage of total fatty acid",[2],0.11%
same,"palmitic acid, lipid as percentage of total fatty acid",[2],26.90%
same,"palmitoleic acid, lipid as percentage of total fatty acid",[2],2.36%
same,"pentadecanoic acid, lipid as percentage of total fatty acid",[2],14.93%
same,"pentadecenoic acid, lipid as percentage of total fatty acid",[2],0.27%
same,"stearic acid, lipid as percentage of total fatty acid",[2],1.59%
same,"vaccenic acid, lipid as percentage of total fatty acid",[2],3.68%
